In the supplement of paper PMC11208160:

Experiment: recombinant barcode read abundance after kanamycin selection (control-corrected) (log10(CPM+1)); higher = more efficient recombination; sequences stand for … in AGTGCAGAGAAAATCGGCCAGTTTTCTCTGCCTGCAGTCCGCATGCCGT…AGATTTATGCAGCGGACTGCCTTTCTCCCAAAGTGATAAACCGGACAGTATCATGGACCGGTTTTCCCGGTAATCCGTATTTGCAAGGTTGGTTTCACT; site = the 11-nt target
How it was run: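 Recombination efficiency draws on barcodes counted at recombinant junctions in a pooled E. coli screen of targets paired with IS621 bridge RNA target-binding loops. The counts were converted to counts per million, averaged and corrected against the chloramphenicol/ampicillin LB agar control, then reported as log10(CPM+1). Selection plates held chloramphenicol/ampicillin/kanamycin with 0.1 mM IPTG, with two replicates per condition.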
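Also: IS621 recombinase and bridge RNA in Escherichia coli cells.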

Sequence	recombinant barcode read abundance (log10)
TCGCACCCTTGGGTTCTAACCTGTTGCGA (site TCGCACCCTTC)	0.571
TCGCACCCTTGGGTTCTAACCTGTTGCGA (site TCGGACCCTTC)	0.369
TCGCACCCTTGGGTTCTAACCTGTTGCGA (site TCGTACCCTTC)	0.514
TCGCACGCTTGGGTTCTAACCTGTTGCCT (site TCGCACGCTAG)	0.205
TCGCACGCTTGGGTTCTAACCTGTTGCCT (site TCTCACGCTAG)	0.541
TCGCACTCTTGGGTTCTAACCTGTTGCCT (site TCACACTCTAG)	1.22
TCGCACTCTTGGGTTCTAACCTGTTGCCT (site TCCCACTCTAG)	0.22
TCGCACTCTTGGGTTCTAACCTGTTGCCT (site TCGCACTCTAG)	0.0694
TCGCACTCTTGGGTTCTAACCTGTTGCCT (site TCTCACTCTAG)	0.117
TCGCACTCTTGGGTTCTAACCTGTTGCTA (site TCGCACACTTA)	0.262
TCGCACTCTTGGGTTCTAACCTGTTGCTA (site TCGCACTCTTA)	0.911
TCGCCTACTTGGGTTCTAACCTGTTGCCT (site TCGCCTACTAG)	0.049
TCGCCTACTTGGGTTCTAACCTGTTGCCT (site TCGCCTGCTAG)	0.396
TCGCCTTCTTGGGTTCTAACCTGTTGCCT (site TAGCCTTCTAG)	0.482
TCGCCTTCTTGGGTTCTAACCTGTTGCCT (site TCGCCTTCTAG)	0.364
TCGCCTTCTTGGGTTCTAACCTGTTGCCT (site TGGCCTTCTAG)	0.654
TCGCCTTCTTGGGTTCTAACCTGTTGCCT (site TTGCCTTCTAG)	0.0934
TCGCGGCCTTGGGTTCTAACCTGTTGCCT (site ACGCGGCCTAG)	0.153

Sequence	recombinant barcode read abundance (log10)
TCGCGGCCTTGGGTTCTAACCTGTTGCCT (site CCGCGGCCTAG)	0.105
TCGCGGCCTTGGGTTCTAACCTGTTGCCT (site GCGCGGCCTAG)	0.1
TCGCGGCCTTGGGTTCTAACCTGTTGCCT (site TCGCGGCCTAG)	0.0408
TCGCGTCCTTGGGTTCTAACCTGTTGCCG (site ACGCGTCCTCG)	0.116
TCGCGTCCTTGGGTTCTAACCTGTTGCCG (site TCGCGTCCTCG)	1.41
TCGCTAGCTTGGGTTCTAACCTGTTGCGG (site CCGCTACCTCC)	1.83
TCGCTAGCTTGGGTTCTAACCTGTTGCGG (site TCGCTAGCTCC)	0.657
TCGGACACTTGGGTTCTAACCTGTTGCCA (site TCGGACACTTG)	1.89
TCGGACACTTGGGTTCTAACCTGTTGCCA (site TGGGACTCTTG)	0.0505
TCGGAGGCTTGGGTTCTAACCTGTTGCTG (site TCAGAGGCTCA)	0.774
TCGGAGGCTTGGGTTCTAACCTGTTGCTG (site TCCGAGGCTCA)	0.325
TCGGAGGCTTGGGTTCTAACCTGTTGCTG (site TCGGAGGCTCA)	0.442
TCGGAGGCTTGGGTTCTAACCTGTTGCTG (site TCTGAGGCTCA)	0.374
TCGGAGTCTTGGGTTCTAACCTGTTGCCT (site TCGGAGTCTAA)	0.128
TCGGAGTCTTGGGTTCTAACCTGTTGCCT (site TCGGAGTCTAC)	1.06
TCGGAGTCTTGGGTTCTAACCTGTTGCCT (site TCGGAGTCTAG)	2.23
TCGGAGTCTTGGGTTCTAACCTGTTGCCT (site TCGGAGTCTAT)	0.503
TCGGATACTTGGGTTCTAACCTGTTGCCA (site TAGGACACTTG)	0.0618
